Experimental data as given in patent US20250250629A1, “NUCLEOTIDE CYCLIC CLEAVABLE MOIETIES AND USES THEREOF” (Singular Genomics Systems, Inc., priority 2022, published 2025).

Test: Storage stability of reversibly terminated nucleotides (percentage of deblocked nucleotides, in-house assay)
Assay type: physicochemical
Conditions: for percentage of deblocked nucleotides (3′-OH, loss of reversible terminator) over time: stored at 20° C. over 21 days (vs. 4° C.)
Description: FIGS. 1A-1B depict storage stability studies of nucleotides stored at both 4° C. and 20° C. over a period of 21 days. The stability of the reversibly terminated nucleotide can be measured by the % of nucleotides that lose the reversible terminator moiety (e.g., via spontaneous fragmentation or reduction to yield a 3′-OH). […] (black) and 20° C. (light). […] (black) and 20° C. (light).
The stability of a reversibly terminated nucleotide can be measured by determining the loss of the reversible terminator over time. FIGS. 1A-1B depict the storage stability of nucleotides having a linear disulfide RT and cyclic disulfide RT stored at both 4° C. and 20° C. over a period of 21 days. The linear disulfide RT tested has the structure:
A buffer containing 200 nM of each nucleotide was stored at 4° C. and 20° C. over a period of 21 days and the percentage of deblocked nucleotides (i.e., those having loss of 3′-OH reversible terminator) was determined using an in-house assay. The stability of the reversibly terminated nucleotide can be measured by the % of nucleotides that lose the reversible terminator moiety (e.g., via spontaneous fragmentation or reduction to yield a 3′-OH). […] (black) and 20° C. (light). […] (black) and 20° C. (light). As observed in FIG. 1A, the average percentage of reversible terminator loss is about 0.13%+/−0.05% when stored at 4° C., and is considered relatively stable when stored under these conditions. […] Subsequent storage stability studies indicate the nucleotides are stable, wherein the average percentage of reversible terminator loss is less than about 0.15%, beyond 120 days at both 20° C. and 4° C.

[1] = buffer containing 200 nM nucleotide

Structure (SMILES)	average percentage of reversible terminator loss (buffer containing 200 nM nucleotide, stored at 4° C. over 21 days)	percentage of deblocked nucleotides (3′-OH, loss of reversible terminator) over time [1]	average percentage of reversible terminator loss (subsequent storage stability studies, beyond 120 days at 4° C.)	average percentage of reversible terminator loss (subsequent storage stability studies, beyond 120 days at 20° C.)
CSSC(C)OC1CC(n2cc(C)c(=O)[nH]c2=O)OC1COP(=O)(O)OP(=O)(O)OP(=O)(O)O (centres unmarked) [linear disulfide RT, reference compound]	about 0.13%+/−0.05	grows over time	–	–
Cc1cn(C2CC(OC3CCCSS3)C(COP(=O)(O)OP(=O)(O)OP(=O)(O)O)O2)c(=O)[nH]c1=O (centres unmarked) [cyclic disulfide RT]	–	less prone to spontaneously losing the 3′ reversible terminator	less than 0.15%	less than 0.15%
